5 compounds from US8993523B2, “Dimeric IAP inhibitors” (Novartis AG, priority 2010, dated 2015) can be followed below.

The test system of one experiment is xenograft tumors. The experiment can be described thus: In vivo combination study in xenograft tumor mice. Conditions: 1× per week, mice with xenograft tumors, 2-3 weeks. As for the experimental part: In vivo combination studies were performed as follows. Cohorts of mice (n=8) were treated with (1) Cohort A: Example 1A (1.8 mg/kg, 1× per week), (2) Cohort B: Paclitaxel (12 mg/kg, 1× per week), or (3) Cohort C: a combination of Example 1A (1.8 mg/kg, 1× per week)+Paclitaxel (12 mg/kg, 1× per week). Studies typically initiated dosing when xenograft tumors were 200 mm^3 and lasted 2-3 weeks. Positive combination activity occurs when neither single agent treatment alone results in tumor regression (i.e. increase in tumor volume is not inhibited in treated animals) but the combination results in tumor regression (i.e. tumor volume decreases in treated animals).

Another experiment has as its target T1, XIAP-BIR3 (Homo sapiens, UniProt P98170).
T1 construct: with either 100 nM XIAP-BIR3 or 6 nM cIAP1-BIR3
Briefly: Biacore SPR solution inhibition (competition with smac7mer peptide) binding assay, XIAP-BIR3. Conditions: 100 nM XIAP-BIR3, competition with immobilised smac7mer peptide, 25° C.; read-out: XIAP-BIR3 Binding Biacore (Competitive) EC50. The source says:
(§1) The present method includes utility of a Surface plasmon resonance (SPR)-based biosensor (Biacore™ GE Healthcare, Uppsala, Sweden) to examine competition between the compounds of the present invention and smac7mer peptide for XIAP-BIR3 and cIAP1-BIR3 binding groove occupancy.
(§2) Biacore™ utilizes the phenomenon of surface plasmon resonance (SPR) to detect and measure binding interactions. In a typical Biacore experiment, one of the interacting molecules is immobilized on a flexible dextran matrix while the interacting partner is flowed over the derivatized surface. A binding interaction results in an increase in mass on the sensor surface and a corresponding direct change in the refractive index of the medium in the vicinity of the sensor surface. Changes in refractive index or signal are recorded in resonance units (R.U.) Signal changes due to association and dissociation of complexes are monitored in a non-invasive manner, continuously and in real-time, the results of which are reported in the form of a sensorgram.
(§3) Solution Inhibition Assay Format:
(§4) Biacore™ T100 (GE Healthcare, Uppsala, Sweden) was used to conduct all experiments reported herein. Sensor surface preparation and interaction analyses were performed at 25° C. Buffer and Biacore reagents were purchased from GE Healthcare. Running buffer containing 10 mM Hepes, pH7.4, 150 mM sodium chloride, 1.25 mM Dithiothreitol, 2% Dimethyl sulfoxide and 0.05% polysorbate 20 was utilized throughout all experiments.
(§5) Biotinylated smac7mer peptide was diluted to 10 nM in running buffer and captured onto a sensor surface pre-derivatized with streptavidin (sensor chip SA) towards peptide surface densities in the range 40-100 R.U. Peptide captured surfaces were blocked with 500 μM PEO2-Biotin (Thermo Scientific).
(§6) Interaction analyses were performed by first equilibrating each compound within a six point seven fold compound dilution series in the range 1 μM to 0.06 nM with either 100 nM XIAP-BIR3 or 6 nM cIAP1-BIR3 for at least one hour during instrument start-up procedures. Protein compound mixtures were then injected over reference and smac7mer peptide surfaces in series for 60 seconds at a flow-rate of 60 μL/min. Surface regeneration was performed at the end of each analysis cycle by a 30 second injection of 10 mM Glycine, pH 2.5, 1M Sodium Chloride, 0.05% polysorbate 20. Additionally, control compound samples and control XIAP-BIR3 or cIAP1-BIR3 samples were prepared and run at regular intervals to monitor surface and assay performance.
(§7) Data analyses were carried out using Biacore™ T100 evaluation software v2.0 to validate assay quality. Binding level report points were plotted versus logarithmic compound concentration values and analyzed in Graphpad prism 5 via non-linear regression using a one-site competition model. EC50 values were generated and used as a measure of inhibitor potency.
(In general: In SPR one partner is held on a chip, and binding of the other changes the refractive index at the surface.)

Another experiment addresses T2, cIAP1-BIR3 (Homo sapiens, UniProt Q13490).
T2 construct: with either 100 nM XIAP-BIR3 or 6 nM cIAP1-BIR3
Briefly: Biacore SPR solution inhibition (competition with smac7mer peptide) binding assay, cIAP1-BIR3. Conditions: 6 nM cIAP1-BIR3, competition with immobilised smac7mer peptide, 25° C.; read-out: CIAP-BIR3 Binding Biacore (Competitive) EC50.
From the text: as §1, §2, §3, §4, §5, §6, §7

The next experiment concerns Panc3.27 tumor cells. Briefly: Cellular assay: Panc3.27 tumor cell proliferation (Cell Titer Glo). In kind it is cell-based. Conditions: Panc3.27 cells, 72 hour treatment, read-out: PANC proliferation IC50. As for the experimental part:
Cellular Assay—Treatment of Panc3.27 Tumor Cells with Dimeric IAP Antagonists
On day one adherent Panc3.27 cells are plated into two 96-well, clear, flat bottom plates. All wells in row A contain 90 uL of media. All wells in rows B-G contain a total volume of 90 uL per well and 4000 cells per well for Panc3.27 cell lines. Plates are then incubated overnight for 18 hours at 37° C., 5% CO2.
On day two cells are treated with the compounds of formula M-L-M′. Treatments are done in triplicate. The compounds are first serially diluted in DMSO and then added to media giving a final concentration of 0.2% DMSO when added to cells. Cells are treated with 10 uL of serially diluted compounds of formula M-L-M′ at a final concentration of 1000 nM, 200 nM, 40 nM, 8 nM, 1.6 nM, 0.32 nM, 0.06 nM, 0.013 nM, 0.0026 nM, and one untreated well. Plate two is used as a time zero plate.
To measure cell viability 50 uL of Cell Titer Glo (CTG) solution is added to row A, media only and B, cells and media. CTG is purchased from Promega Corporation catalog number G7573. The solution is prepared according to manufacturer's instructions. CTG measures the amount of ATP released from viable cells that is proportional to the number of cells in each well. After incubating for ten minutes with CTG plates are measured on a luminescent reader at 700 nm wavelength. Read time is approximately one second per well for a 96-well plate.
On day five 50 uL of CTG is added to plate one, rows A-G, incubated for 10 minutes at room temperature and read on a luminescent reader. Raw data is adjusted to account for the time zero plate as well as background noise. Triplicate values are averaged and percent control growth is calculated. Percent control growth is calculated using the following logical test: If well read data point (a) is greater than time zero data point (t=0), then 100*[(a)−(t=0)]/[(72 hour total growth)−(t=0)], OR 100*[(a)−(t=0)]/[(t=0)]. Data is represented by line graph with the concentration of compound on the x axis and percent control growth on the y axis.
For orientation: In ATP-based viability assays light output follows the ATP content of the culture.

T2 sequence (Q13490 260-352 limits assumed): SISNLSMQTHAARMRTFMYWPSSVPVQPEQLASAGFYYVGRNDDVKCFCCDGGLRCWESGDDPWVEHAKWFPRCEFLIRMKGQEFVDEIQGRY
T1 sequence (P98170 241-356 limits assumed): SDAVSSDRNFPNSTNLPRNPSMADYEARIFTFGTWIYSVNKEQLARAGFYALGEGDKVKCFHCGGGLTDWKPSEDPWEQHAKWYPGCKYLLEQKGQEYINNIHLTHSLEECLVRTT

Consider `CN[C@@H](C)C(=O)N[C@H](C(=O)N1CCC[C@H]1c1cncc(-n2ccc3c(C(=O)NCCCOCCOCCCNC(=O)c4cccc5c4ccn5-c4cncc([C@@H]5CCCN5C(=O)[C@@H](NC(=O)[C@H](C)NC)C(C)C)c4)cccc32)c1)C(C)C` [Example 1A, (S,S,S)—N,N′-(3,3′-(Ethane-1,2-diylbis(oxy))bis(propane-3,1-diyl))bis(1-(5-((S)-1-((S)-3-methyl-2-((S)-2-(methylamino)-propanamido)butanoyl)pyrrolidin-2-yl)pyridin-3-yl)-1H-indole-4-carboxamide)], for which, in the experiment on xenograft tumors (Cohort A: 1.8 mg/kg), the “tumor response, single agent” value was “tumor stasis was achieved”. For the same compound, the EC50 at XIAP-BIR3 fell in the range of 34.5 to 56.9 nM; at cIAP1-BIR3, 0.24 to 0.57 nM. Also, in the experiment on Panc3.27 tumor cells, the IC50 was in the range of 0.0026 to 0.83 nM.
For the compound `CN[C@@H](C)C(=O)N[C@H](C(=O)N1CCC[C@H]1c1cncc(-n2cc(C(=O)NCc3ccc(CNC(=O)c4cn(-c5cncc([C@@H]6CCCN6C(=O)[C@@H](NC(=O)[C@H](C)NC)C(C)C)c5)c5ccccc45)cc3)c3ccccc32)c1)C(C)C` [Example 2P, (S,S,S)—N,N′-(1,4-phenylenebis(methylene))bis(1-(5-((S)-1-((S)-3-methyl-2-((S)-2-(methylamino)propanamido)butanoyl)pyrrolidin-2-yl)pyridin-3-yl)-1H-indole-3-carboxamide)], the EC50 at XIAP-BIR3 was in the range of 70.9 to 71 nM; on cIAP1-BIR3, 1.21 to 1.23 nM. Further, in the experiment on Panc3.27 tumor cells, the IC50 was less than 0.0026 nM.
For `[2H]C([2H])([2H])N[C@@H](C)C(=O)N[C@H](C(=O)N1CCC[C@H]1c1cncc(-n2ccc3c(C(=O)NCCCOCCOCCCNC(=O)c4cccc5c4ccn5-c4cncc([C@@H]5CCCN5C(=O)[C@@H](NC(=O)[C@H](C)NC([2H])([2H])[2H])C(C)C)c4)cccc32)c1)C(C)C` [Example 3A, (S,S,S)—N,N′-(3,3′-(ethane-1,2-diylbis(oxy))bis(propane-3,1-diyl))bis(1-(5-((S)-1-((S)-3-methyl-2-((S)-2-(trideuteromethylamino)propanamido)butanoyl)-pyrrolidin-2-yl)pyridin-3-yl)-1H-indole-4-carboxamide)] the same measures were 44.7 nM, 0.59 nM and 0.12 to 0.17 nM.
For the compound `CC(=O)O[C@H]1C(=O)[C@@]2(C)[C@H]([C@H](OC(=O)c3ccccc3)[C@]3(O)C[C@H](OC(=O)[C@H](O)[C@@H](NC(=O)c4ccccc4)c4ccccc4)C(C)=C1C3(C)C)[C@]1(OC(C)=O)CO[C@@H]1C[C@@H]2O` [Paclitaxel, reference compound], the tumor growth control in the experiment on xenograft tumors (Cohort B: 12 mg/kg) was greater than 50%.
As for “(S,S,S)—N,N′-(propane-1,3-diyl)bis(1-(5-((S)-1-((S)-3-methyl-2-((S)-2-(methylamino)propanamido)butanoyl)pyrrolidin-2-yl)pyridin-3-yl)-1H-indole-3-carboxamide) [Example 2A]”, the values for the EC50 at XIAP-BIR3 and at cIAP1-BIR3 were 49.8 to 52.2 nM and 0.6 to 1.1 nM, respectively. Also, the IC50 with Panc3.27 tumor cells lay within 0.14 to 2.86 nM.

Broadly, the EC50 is the concentration needed to bring the measured effect to its halfway point.
